# Source: patent US20260070887A1 (Shenzhen Zhongge Biological Technology Co., Ltd., priority 2022, published 2026)
# Read-outs that look alike come from different tables or passages of the source.
# Tests used:
# KIF18A = KIF18A (Homo sapiens (Human), UniProt Q8NI77); assay: KIF18A ATPase activity under tubulin stimulation (ADP-Glo assay); type: biochemical; conditions: KIF18A 30 nM, ATP 150 μM, pig microtubules
# Protocol: This experiment assesses the inhibitory effect of the compounds of the present disclosure on the KIF18A target according to the IC50 values by measuring the KIF18A ATPase activity under tubulin stimulation with the presence of the compounds.
# • 1. Preparation of 30 mL of reaction buffer: • (1) 450 μL 1M Tris-HCl (pH=7.5)+300 μL 1M MgCl2+30 μL 10% Pluronic F-68 (ThermoFisher, 24040032-100 ml); • (2) adjusting pH to 7.5, and adding water to adjust the volume to 30 mL. • 2. Preparation of a 5 mg/mL pig microtubule (Microtubules; MT) (Cytoskeleton Inc, MT002) stock solution: • (1) 10 mL PM buffer=150 μL 1 M PIPES (pH 7.0)+20 μL 0.5 mM MgCl2+100 μL 2 mM Taxol (Cytoskeleton Inc, TXD01)+9730 μL water. • (2) MT ([…]): Adding 100 μL PM buffer to prepare a 5 mg/mL stock solution. Keeping the MT (Cytoskeleton Inc, MT002) at room temperature for 10-15 minutes, gently mixing and storing same at −80° C. • 3. Preparation of 2 mL of kinase buffer: 2 mL reaction buffer+1 μL 2 mM Taxol (Cytoskeleton Inc, TXD01)+12 μL 5 mg/mL MT (Cytoskeleton Inc, MT002). • 4. Preparation of 2×KIF18A (30 nM) (ChemPartner, CPB-P22-31645) working solution: 2.4 μL 10 μM KIF18A (ChemPartner, CPB-P22-31645)+800 μL 1× kinase buffer. • 5. Preparation of 2×ATP (150 μM) (Promega, G9101) working solution: 12 μL 10 mM ATP+800 μL 1× kinase buffer. • 6. 25 nL of compound was transferred to a 384-well plate using Echo650. • 7. 2.5 μL of 2×KIF18A from Step 4 (final concentration of 30 nM) was added to the 384-well plate and the plate was incubated at 25° C. for 15 minutes. • 8. 2.5 μL of 2×ATP from Step 5 (final concentration of 150 μM) was added to the 384-well plate and the plate was incubated at 25° C. for 15 minutes. • 9. 5 μL ADP-Glo™ Reagent (Promega, G9101) was added to the 384-well plate and the plate was incubated at 25° C. for 40 minutes. • 10. 10 μL of kinase detection reagent (Promega, G9101) was added to the 384-well plate and the plate was incubated at 25° C. for 40 minutes. • 11. Luminescence values were measured using the EnVision Xcite Multilabel Reader (PerkinElmer, 2105-0020).
# OVCAR-3 cells = assay: OVCAR-3 cell proliferation (Cell Titer-Glo, 10 days); type: cell-based, human
# Protocol: The inhibitory effect on the KIF18A target by the compounds of the present disclosure was evaluated by testing the inhibitory effect on proliferation of OVCAR-3 cells by the compounds of the present disclosure.
# The following method was used to determine the effect of the compounds of the present disclosure on the proliferation of human ovarian cancer cells Ovcar-3 (HTB-161, ATCC). Cells were cultured in RPMI-1640 complete medium containing 20% fetal bovine serum, 0.01 mg/mL bovine insulin, 100 U penicillin, and 100 μg/mL streptomycin. The Promega kit Cell Titer-Glo (Cat. No. G7572) was used in this method for test.
# For specific steps, reference was made to the kit instructions, and the procedure was outlined below: Test compounds were dissolved in DMSO to prepare a 10 mM stock solution, which was diluted at the predetermined test concentrations, and the test compounds at different concentrations were added to a 384-well cell test plate using ECHO. In the plate pre-added with the test compounds, 400 OVCAR-3 cells in the logarithmic growth phase were seeded per well, ensuring the final concentration of the test compounds in the reaction system ranged between 0.12 nM and 10 μM. The co-culture was maintained in a cell culture incubator for 10 days. Before testing, the cell culture plate was equilibrated for 10 minutes at room temperature, 25 μL of Cell Titer-Glo was added to each well, and the mixture was shaken and mixed well and let stand for 5 minutes. The luminescence values for samples in various wells were read using a microplate reader in Luminescence mode.
# The percentage of inhibition of cell proliferation by the test compound at each concentration was calculated by comparing with the values of the control group (0.1% DMSO). The IC50 values of the compounds were obtained by concentration-inhibition rate nonlinear regression analysis of the test compounds using GraphPad Prism 9.
# KIF18A, sequence (Q8NI77 whole entry): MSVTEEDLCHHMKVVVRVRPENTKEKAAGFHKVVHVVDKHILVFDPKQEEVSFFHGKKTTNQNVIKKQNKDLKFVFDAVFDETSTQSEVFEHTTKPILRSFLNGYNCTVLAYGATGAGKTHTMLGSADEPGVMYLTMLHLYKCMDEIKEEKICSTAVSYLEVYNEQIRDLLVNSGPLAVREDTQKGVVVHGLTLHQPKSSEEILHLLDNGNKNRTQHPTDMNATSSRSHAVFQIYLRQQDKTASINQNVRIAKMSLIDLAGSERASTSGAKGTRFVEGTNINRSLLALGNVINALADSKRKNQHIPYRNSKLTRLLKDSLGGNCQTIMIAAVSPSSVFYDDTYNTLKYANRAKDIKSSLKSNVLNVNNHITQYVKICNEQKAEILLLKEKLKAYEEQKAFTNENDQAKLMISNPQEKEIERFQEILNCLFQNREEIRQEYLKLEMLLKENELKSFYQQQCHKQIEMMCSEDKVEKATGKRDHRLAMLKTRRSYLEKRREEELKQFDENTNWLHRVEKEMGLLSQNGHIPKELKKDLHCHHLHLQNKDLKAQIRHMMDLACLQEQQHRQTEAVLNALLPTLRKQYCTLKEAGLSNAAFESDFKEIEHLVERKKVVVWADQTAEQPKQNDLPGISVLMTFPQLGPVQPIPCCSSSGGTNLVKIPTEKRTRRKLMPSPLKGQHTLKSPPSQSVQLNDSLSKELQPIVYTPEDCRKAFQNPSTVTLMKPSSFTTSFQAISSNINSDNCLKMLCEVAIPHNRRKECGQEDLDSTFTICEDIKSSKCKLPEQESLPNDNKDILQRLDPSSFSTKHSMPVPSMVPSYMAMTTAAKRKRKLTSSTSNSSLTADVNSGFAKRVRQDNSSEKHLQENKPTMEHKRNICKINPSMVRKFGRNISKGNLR
# KIF18A, sequence (P02550 whole entry partner): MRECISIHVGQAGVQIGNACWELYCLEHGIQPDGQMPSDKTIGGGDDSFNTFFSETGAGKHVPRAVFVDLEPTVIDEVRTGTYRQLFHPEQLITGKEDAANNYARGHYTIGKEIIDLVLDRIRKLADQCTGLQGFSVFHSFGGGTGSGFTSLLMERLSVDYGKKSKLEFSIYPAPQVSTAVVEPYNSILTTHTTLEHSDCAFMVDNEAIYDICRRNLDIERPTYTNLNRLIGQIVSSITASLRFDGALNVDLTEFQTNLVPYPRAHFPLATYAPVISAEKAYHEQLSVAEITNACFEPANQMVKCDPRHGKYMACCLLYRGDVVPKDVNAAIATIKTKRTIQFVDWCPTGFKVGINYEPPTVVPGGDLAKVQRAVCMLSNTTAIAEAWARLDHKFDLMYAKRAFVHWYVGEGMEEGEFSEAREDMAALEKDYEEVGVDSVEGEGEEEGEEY
# KIF18A, sequence (P02554 whole entry partner): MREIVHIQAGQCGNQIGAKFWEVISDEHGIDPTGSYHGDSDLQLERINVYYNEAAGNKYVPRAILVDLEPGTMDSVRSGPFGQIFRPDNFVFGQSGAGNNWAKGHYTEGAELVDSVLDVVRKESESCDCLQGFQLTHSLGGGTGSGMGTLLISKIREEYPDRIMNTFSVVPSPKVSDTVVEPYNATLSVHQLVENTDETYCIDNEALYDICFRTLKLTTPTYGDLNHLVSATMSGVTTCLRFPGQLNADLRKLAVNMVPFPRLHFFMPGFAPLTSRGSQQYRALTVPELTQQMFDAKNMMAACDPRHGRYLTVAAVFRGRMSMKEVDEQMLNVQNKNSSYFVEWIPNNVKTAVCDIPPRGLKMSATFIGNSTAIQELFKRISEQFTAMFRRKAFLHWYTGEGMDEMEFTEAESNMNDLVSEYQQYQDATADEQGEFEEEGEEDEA
IC50 (KIF18A) [nM],"IC50 (OVCAR-3 cells; Homo sapiens, OVCAR-3, 240 h) [nM]",Structure (SMILES),IC50 (OVCAR-3 cells) [nM]
≤ 50,–,"CC1OCCn2c1cc1c(NC(=O)c3ccc(NS(=O)(=O)CCO)cc3N3CCC4(CC3)CC4)cccc12 (stereo not shown) [Compound 311-P2, 4-((2-hydroxyethyl)sulfonamido)-N-(1-methyl-3,4-dihydro-1H-[1,4]oxazinyl[4,3-a]indol-9-yl)-2-(6-azaspiro[2.5]oct-6-yl)benzamide]",≤ 50
≤ 50,≤ 50,"O=C(Nc1cccc2c1cc1n2CCC(F)(F)C1O)c1ccc(NS(=O)(=O)CCO)cc1N1CCC(=C(F)F)CC1 (stereo not shown) [Compound 383, N-(8,8-difluoro-9-hydroxy-6,7,8,9-tetrahydropyridino[1,2-a]indol-1-yl)-2-(4-(difluoromethylene)piperidin-1-yl)-4-((2-hydroxyethyl)sulfonamido)benzamide]",–
50 to 500,500 to 5000,O=C(Nc1ccc2c(c1)N1CCC(F)(F)CC1CO2)c1ccc(NS(=O)(=O)CCO)cc1N1CCC(=C(F)F)CC1 (stereo not shown) [Compound 399],–
≤ 50,50 to 500,"O=C(Nc1cccc2c1OCC1CC(F)(F)CCN21)c1ccc(NS(=O)(=O)CCO)cc1N1CCC2(CC1)CC2 (stereo not shown) [Compound 400, N-(8,8-difluoro-6,6a,7,8,9,10-hexahydrobenzo[b]pyrido[1,2-d][1,4]oxazin-4-yl)-4-((2-hydroxyethyl)sulfonamido)-2-(6-azaspiro[2.5]oct-6-yl)benzamide]",–
≤ 50,50 to 500,"O=C(Nc1ccnc2c1cc1n2CCOC1)c1ccc(NS(=O)(=O)CCO)cc1N1CCC(=C(F)F)CC1 [Compound 401, 2-(4-(difluoromethylene)piperidin-1-yl)-N-(8,9-dihydro-6H-pyrido[3′,2′:4,5]pyrrolo[2,1-c][1,4]oxazin-4-yl)-4-((2-hydroxyethyl)sulfonamido)benzamide]",–
50 to 500,50 to 500,"COC1c2cc3c(NC(=O)c4ccc(NS(=O)(=O)CCO)cc4N4CCC5(CC4)CC5)ccc(C#N)c3n2CCC1(F)F (stereo not shown) [Compound 428, N-(4-cyano-8,8-difluoro-9-methoxy-6,7,8,9-tetrahydropyridino[1,2-a]indol-1-yl)-4-((2-hydroxyethyl)sulfonamido)-2-(6-azaspiro[2.5]oct-6-yl)benzamide]",–
≤ 50,–,"O=C(Nc1cccc2c1cc1n2CCC(F)(F)C1)c1ccc(NS(=O)(=O)CCO)cc1N1CCC2(CC1)CC2 [Example 128, 2-(6-azaspiro[2.5]oct-6-yl)-N-(8,8-difluoro-6,7,8,9-tetrahydropyridino[1,2-a]indol-1-yl)-4-{[(2-hydroxyethyl)sulfonamide]}benzamide]",≤ 50
≤ 50,–,"O=C(Nc1cccc2c1CC1CCCN21)c1ccc(NS(=O)(=O)CCO)cc1N1CCC2(CC1)CC2 (stereo not shown) [Example 130, 4-((2-hydroxyethyl)sulfonamide)-2-(6-azaspiro[2.5]octan-6-yl)-N-(2,3,9,9a-tetrahydro-1H-pyrrolo[1,2a]indol-8-yl)benzamide]",50 to 500
50 to 500,500 to 5000,"CC(C)(O)Cn1ccc2c(NC(=O)c3ccc(NS(=O)(=O)CCO)cc3N3CCC4(CC3)CC4)cccc21 [Example 279, N-(1-(2-hydroxy-2-methylpropyl)-1H-indol-4-yl)-4-((2-hydroxyethyl)sulfonamido)-2-(6-azaspiro[2.5]oct-6-yl)benzamide]",–
50 to 500,50 to 500,"O=C(Nc1cccc2c1ccn2CC1(F)CC1)c1ccc(NS(=O)(=O)CCO)cc1N1CCC2(CC1)CC2 [Example 283, N-(1-((1-fluorocyclopropyl)methyl)-1H-indol-4-yl)-4-((2-hydroxyethyl)sulfonamido)-2-(6-azaspiro[2.5]oct-6-yl)benzamide]",–
≤ 50,50 to 500,"O=C(Nc1cccc2c1ccn2CC1CC1(F)F)c1ccc(NS(=O)(=O)CCO)cc1N1CCC2(CC1)CC2 (stereo not shown) [Example 286, N-(1-((2,2-difluorocyclopropyl)methyl)-1H-indol-4-yl)-4-((2-hydroxyethyl)sulfonamido)-2-(6-azaspiro[2.5]oct-6-yl)benzamide]",–
50 to 500,50 to 500,"O=C(Nc1cccc2c1cnn2CC1CC1)c1ccc(NS(=O)(=O)CCO)cc1N1CCC2(CC1)CC2 [Example 287, N-(1-(cyclopropylmethyl)-1H-indazol-4-yl)-4-(2-hydroxyethylsulfonamido)-2-(6-azaspiro[2.5]octan-6-yl)benzamide]",–
≤ 50,500 to 5000,"O=C(Nc1ccc(F)c2c1OCCN2CC1CC1)c1ccc(NS(=O)(=O)CCO)cc1N1CCC2(CC1)CC2 [Example 294, N-(4-(cyclopropylmethyl)-5-fluoro-3,4-dihydro-2H-benzo[b][1,4]oxazin-8-yl)-4-((2-hydroxyethyl)sulfonamido)-2-(6-azaspiro[2.5]oct-6-yl)benzamide]",–
50 to 500,50 to 500,"O=C(Nc1cccc2c1cc1n2CC(F)(F)CC1)c1ccc(NS(=O)(=O)CCO)cc1N1CCC2(CC1)CC2 [Example 341, N-(7,7-difluoro-6,7,8,9-tetrahydropyridino[1,2-a]indol-1-yl)-4-((2-hydroxyethyl)sulfonamido)-2-(6-azaspiro[2.5]oct-6-yl)benzamide]",–
≤ 50,50 to 500,"O=C(Nc1cccc2c1cc1n2CCCC1O)c1ccc(NS(=O)(=O)CCO)cc1N1CCC2(CC1)CC2 (stereo not shown) [Example 342, N-(9-hydroxy-6,7,8,9-tetrahydropyridino[1,2-a]indol-1-yl)-4-((2-hydroxyethyl)sulfonamido)-2-(6-azaspiro[2.5]octan-6-yl)benzamide]",–

Structure (SMILES),IC50 (KIF18A) [nM],"IC50 (OVCAR-3 cells; Homo sapiens, OVCAR-3, 240 h) [nM]",IC50 (OVCAR-3 cells) [nM]
"CCS(=O)(=O)Nc1ccc(C(=O)Nc2cccc3c2cc2n3CCC(F)(F)C2O)c(N2CCC3(CC2)CC3)c1 (stereo not shown) [Compound 382, N-(8,8-difluoro-9-hydroxy-6,7,8,9-tetrahydropyridino[1,2-a]indol-1-yl)-4-ethyl sulfonamido-2-(6-azaspiro[2.5]octan-6-yl)benzamide]",≤ 50,–,≤ 50
"O=C(Nc1cccc2c1cc1n2CCC(F)(F)C1O)c1ccc(NS(=O)(=O)CCO)cc1N1CCC2(CC1)CC2 (stereo not shown) [Compound 384, N-(8,8-difluoro-9-hydroxy-6,7,8,9-tetrahydropyridino[1,2-a]indol-1-yl)-4-((2-hydroxyethyl)sulfonamido)-2-(6-azaspiro[2.5]oct-6-yl)benzamide]",50 to 500,≤ 50,–
"O=C(Nc1cccc2c1CC1COCCN21)c1ccc(NS(=O)(=O)CCO)cc1N1CCC2(CC1)CC2 (stereo not shown) [Compound 411, 4-((2-hydroxyethyl)sulfonamido)-2-(6-azaspiro[2.5]oct-6-yl)-N-(3,4,10,10-tetrahydro-1H-[1,4]oxazino[4,3-a]indol-9-yl)benzamide]",50 to 500,–,50 to 500
"O=C(Nc1cccc2c1CCN2CC1CC1)c1ccc(NS(=O)(=O)CCO)cc1N1CCC2(CC1)CC2 [Example 5, N-(1-(cyclopropylmethyl)indoline-4-(2-hydroxyethyl)sulfonamido)-2-(6-azaspiro[2.5]octan-6-yl)benzamide]",≤ 50,–,50 to 500
"CC1Cn2c(cc3c(NC(=O)c4ccc(NS(=O)(=O)CCO)cc4N4CCC5(CC4)CC5)cccc32)C(C)O1 (stereo not shown) [Example 312, N-(1,3-dimethyl-3,4-dihydro-1H-[1,4]oxazino[4,3-a]indol-9-yl)-4-((2-hydroxyethyl)sulfonamido)-2-(6-azaspiro[2.5]oct-6-yl)benzamide]",50 to 500,≤ 50,–
